Laboratory results published in the NIST ThermoML archive (doi:10.1021/je300405a).

Details: Liquid; for speed of sound: Pulse-echo method; for mass density: Vibrating tube method

CCCCCCCCCC(=O)OC [methyl decanoate]
Details | mass density [kg/m3] | speed of sound [m/s]
283.15 K, 101.3 kPa | – | 1362.6
283.15 K, 10000 kPa | – | 1408.9
283.15 K, 20000 kPa | – | 1452.2
283.15 K, 30000 kPa | – | 1493.2
283.15 K, 40000 kPa | – | 1531.7
283.15 K, 50000 kPa | – | 1568
283.15 K, 60000 kPa | – | 1602.6
283.15 K, 70000 kPa | – | 1634.5
283.15 K, 80000 kPa | – | 1666.4
283.15 K, 90000 kPa | – | 1696.9
283.15 K, 100000 kPa | – | 1726.9
283.15 K, 110000 kPa | – | 1755.2
283.15 K, 120000 kPa | – | 1783.4
283.15 K, 130000 kPa | – | 1809.5
283.15 K, 140000 kPa | – | 1835.9
293.15 K, 101.3 kPa | 872.05 | –
293.15 K, 10000 kPa | 878.88 | –
293.15 K, 20000 kPa | 885.04 | –
293.15 K, 30000 kPa | 890.91 | –
293.15 K, 40000 kPa | 896.46 | –
293.15 K, 50000 kPa | 901.66 | –
293.15 K, 60000 kPa | 906.63 | –
293.15 K, 70000 kPa | 911.3 | –
293.15 K, 80000 kPa | 915.52 | –
293.15 K, 90000 kPa | 920.05 | –
293.15 K, 100000 kPa | 924.3 | –
303.15 K, 101.3 kPa | 863.6 | 1287.7
303.15 K, 10000 kPa | 870.96 | 1339.2
303.15 K, 20000 kPa | 877.43 | 1385.8
303.15 K, 30000 kPa | 883.54 | 1429.6
303.15 K, 40000 kPa | 889.26 | 1470.3
303.15 K, 50000 kPa | 894.61 | 1508.7
303.15 K, 60000 kPa | 899.63 | 1544.9
303.15 K, 70000 kPa | 904.55 | 1580.2
303.15 K, 80000 kPa | 909.11 | 1614.1
303.15 K, 90000 kPa | 913.59 | 1646.1
303.15 K, 100000 kPa | 917.87 | 1676.9
303.15 K, 110000 kPa | – | 1706.8
303.15 K, 120000 kPa | – | 1735.1
303.15 K, 130000 kPa | – | 1762.8
303.15 K, 140000 kPa | – | 1789.2
303.15 K, 150000 kPa | – | 1815.2
303.15 K, 170000 kPa | – | 1864.9
303.15 K, 190000 kPa | – | 1912.7
303.15 K, 210000 kPa | – | 1957.6
313.15 K, 101.3 kPa | 855.85 | –
313.15 K, 10000 kPa | 863.12 | –
313.15 K, 20000 kPa | 869.91 | –
313.15 K, 30000 kPa | 876.23 | –
313.15 K, 40000 kPa | 882.19 | –
313.15 K, 50000 kPa | 887.77 | –
313.15 K, 60000 kPa | 893.04 | –
313.15 K, 70000 kPa | 898.12 | –
313.15 K, 80000 kPa | 902.9 | –
313.15 K, 90000 kPa | 907.5 | –
313.15 K, 100000 kPa | 911.9 | –
323.15 K, 101.3 kPa | 847.65 | 1214.8
323.15 K, 10000 kPa | 855.36 | 1269.1
323.15 K, 20000 kPa | 862.49 | 1319.3
323.15 K, 30000 kPa | 869.02 | 1365.7
323.15 K, 40000 kPa | 875.03 | 1409
323.15 K, 50000 kPa | 880.76 | 1449.5
323.15 K, 60000 kPa | 886.55 | 1487.8
323.15 K, 70000 kPa | 891.71 | 1524
323.15 K, 80000 kPa | 896.69 | 1558.3
323.15 K, 90000 kPa | 901.4 | 1591.2
323.15 K, 100000 kPa | 905.81 | 1623.3
323.15 K, 110000 kPa | – | 1653.9
323.15 K, 120000 kPa | – | 1684.6
323.15 K, 130000 kPa | – | 1711.9
323.15 K, 140000 kPa | – | 1739.6
323.15 K, 150000 kPa | – | 1765.9
323.15 K, 170000 kPa | – | 1817
323.15 K, 190000 kPa | – | 1864.8
323.15 K, 210000 kPa | – | 1910.9
333.15 K, 101.3 kPa | 839.36 | –
333.15 K, 10000 kPa | 847.25 | –
333.15 K, 20000 kPa | 854.44 | –
333.15 K, 30000 kPa | 861.45 | –
333.15 K, 40000 kPa | 867.94 | –
333.15 K, 50000 kPa | 873.98 | –
333.15 K, 60000 kPa | 879.63 | –
333.15 K, 70000 kPa | 885.02 | –
333.15 K, 80000 kPa | 890.12 | –
333.15 K, 90000 kPa | 894.95 | –
333.15 K, 100000 kPa | 899.64 | –
343.15 K, 101.3 kPa | 830.82 | 1142.8
343.15 K, 10000 kPa | 839.54 | 1202.4
343.15 K, 20000 kPa | 847.61 | 1255.9
343.15 K, 30000 kPa | 854.58 | 1304.9
343.15 K, 40000 kPa | 861.37 | 1350.5
343.15 K, 50000 kPa | 867.59 | 1393.5
343.15 K, 60000 kPa | 873.44 | 1433.7
343.15 K, 70000 kPa | 879.04 | 1471.7
343.15 K, 80000 kPa | 884.27 | 1508.2
343.15 K, 90000 kPa | 889.44 | 1541.7
343.15 K, 100000 kPa | 894.26 | 1574.1
343.15 K, 110000 kPa | – | 1606
343.15 K, 120000 kPa | – | 1636.2
343.15 K, 130000 kPa | – | 1665.9
343.15 K, 140000 kPa | – | 1694
343.15 K, 150000 kPa | – | 1721.2
343.15 K, 170000 kPa | – | 1773.2
343.15 K, 190000 kPa | – | 1822
343.15 K, 210000 kPa | – | 1868.7
353.15 K, 101.3 kPa | 822.35 | –
353.15 K, 10000 kPa | 831.43 | –
353.15 K, 20000 kPa | 839.8 | –
353.15 K, 30000 kPa | 847.35 | –
353.15 K, 40000 kPa | 854.31 | –
353.15 K, 50000 kPa | 860.82 | –
353.15 K, 60000 kPa | 866.96 | –
353.15 K, 70000 kPa | 872.65 | –
353.15 K, 80000 kPa | 878.11 | –
353.15 K, 90000 kPa | 883.27 | –
353.15 K, 100000 kPa | 888.25 | –
363.15 K, 101.3 kPa | 814.51 | –
363.15 K, 10000 kPa | 823.75 | 1138.5
363.15 K, 20000 kPa | 832.39 | 1195.9
363.15 K, 30000 kPa | 840.33 | 1247.9
363.15 K, 40000 kPa | 847.71 | 1296.3
363.15 K, 50000 kPa | 854.36 | 1341.1
363.15 K, 60000 kPa | 860.65 | 1382.7
363.15 K, 70000 kPa | 866.47 | 1421.6
363.15 K, 80000 kPa | 872.03 | 1458.4
363.15 K, 90000 kPa | 877.31 | 1493.8
363.15 K, 100000 kPa | 882.47 | 1527.4
363.15 K, 110000 kPa | – | 1559.7
363.15 K, 120000 kPa | – | 1590.9
363.15 K, 130000 kPa | – | 1620.7
363.15 K, 140000 kPa | – | 1649.4
363.15 K, 150000 kPa | – | 1677.2
363.15 K, 170000 kPa | – | 1730.6
363.15 K, 190000 kPa | – | 1780.4
363.15 K, 210000 kPa | – | 1827.2
373.15 K, 101.3 kPa | 805.43 | –
373.15 K, 10000 kPa | 816.05 | –
373.15 K, 20000 kPa | 825.16 | –
373.15 K, 30000 kPa | 833.45 | –
373.15 K, 40000 kPa | 841.07 | –
373.15 K, 50000 kPa | 848.03 | –
373.15 K, 60000 kPa | 854.82 | –
373.15 K, 70000 kPa | 860.9 | –
373.15 K, 80000 kPa | 866.94 | –
373.15 K, 90000 kPa | 872.3 | –
373.15 K, 100000 kPa | 877.6 | –
383.15 K, 101.3 kPa | 797.49 | –
383.15 K, 10000 kPa | 808.37 | 1077.4
383.15 K, 20000 kPa | 818.07 | 1138.6
383.15 K, 30000 kPa | 826.67 | 1193.5
383.15 K, 40000 kPa | 834.58 | 1244.5
383.15 K, 50000 kPa | 841.72 | 1291.3
383.15 K, 60000 kPa | 848.65 | 1334.9
383.15 K, 70000 kPa | 855.07 | 1375.4
383.15 K, 80000 kPa | 861.06 | 1414.2
383.15 K, 90000 kPa | 866.74 | 1450.6
383.15 K, 100000 kPa | 872.09 | 1485.3
383.15 K, 110000 kPa | – | 1518.9
383.15 K, 120000 kPa | – | 1550.9
383.15 K, 130000 kPa | – | 1581.2
383.15 K, 140000 kPa | – | 1610.8
383.15 K, 150000 kPa | – | 1641
383.15 K, 170000 kPa | – | 1692.7
383.15 K, 190000 kPa | – | 1743
383.15 K, 210000 kPa | – | 1791.1
393.15 K, 101.3 kPa | 788.67 | –
393.15 K, 10000 kPa | 800.06 | –
393.15 K, 20000 kPa | 810.12 | –
393.15 K, 30000 kPa | 819.15 | –
393.15 K, 40000 kPa | 827.46 | –
393.15 K, 50000 kPa | 834.97 | –
393.15 K, 60000 kPa | 842.04 | –
393.15 K, 70000 kPa | 848.64 | –
393.15 K, 80000 kPa | 854.73 | –
393.15 K, 90000 kPa | 860.61 | –
393.15 K, 100000 kPa | 866.13 | –
403.15 K, 10000 kPa | – | 1017.7
403.15 K, 20000 kPa | – | 1083.2
403.15 K, 30000 kPa | – | 1141.7
403.15 K, 40000 kPa | – | 1194.7
403.15 K, 50000 kPa | – | 1242.9
403.15 K, 60000 kPa | – | 1288.1
403.15 K, 70000 kPa | – | 1330.6
403.15 K, 80000 kPa | – | 1370.3
403.15 K, 90000 kPa | – | 1407.7
403.15 K, 100000 kPa | – | 1442.8
403.15 K, 110000 kPa | – | 1476.6
403.15 K, 120000 kPa | – | 1509.7
403.15 K, 130000 kPa | – | 1541.7
403.15 K, 140000 kPa | – | 1571.6
403.15 K, 150000 kPa | – | 1600.1
403.15 K, 170000 kPa | – | 1655.5
403.15 K, 190000 kPa | – | 1706.6
403.15 K, 210000 kPa | – | 1754.5
